Assay results taken from the supplement of paper PMC11061612.

Columns and labels:
[1] = system: KARPAS-299 (T-Cell Non-Hodgkin's Lymphoma); assay: Bliss excess, mean over the matrix (fraction); higher = more synergy
Procedure, shortened: (§1)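 Cell lines grown in DMEM/F12 or RPMI with 10% FBS were plated in 1536-well plates and held 24 hours at 37°C, 5% CO2 before 72 hours of exposure to two-drug dose matrices, with DMSO typically at 0.2%. CellTiter-Glo 2.0 luminescence gave viability, which was converted to inhibition. Vehicle wells were set to 0 and blank wells to 1. Combination Emax is the second-highest inhibition in the matrix, and Bliss excess is the observed combination effect minus the expected EA + EB − EA·EB, where EA and EB are the single-agent effects.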

[2] = system: LU-65 (Non-Small Cell Lung Carcinoma); assay: as above
Procedure, shortened: as §1

TK10 (Kidney Carcinoma) = assay: as above
Procedure, shortened: as §1

[3] = system: EFM-19 (Breast Carcinoma); assay: as above
Procedure, shortened: as §1

[4] = system: KYSE-450 (Esophageal Squamous Cell Carcinoma); assay: as above
Procedure, shortened: as §1

UACC-62 (Melanoma) = assay: as above
Procedure, shortened: as §1

[5] = system: PANC-04-03 (Pancreatic Carcinoma); assay: as above
Procedure, shortened: as §1

[6] = system: MIA-PaCa-2 (Pancreatic Carcinoma); assay: as above
Procedure, shortened: as §1

[7] = system: EoL-1-cell (Acute Myeloid Leukemia); assay: as above
Procedure, shortened: as §1

D-263MG (Glioblastoma) = assay: as above
Procedure, shortened: as §1

PWR-1E (Non-Cancerous) = assay: combination Emax (second highest fraction inhibited in the dose matrix, 72 h); higher = more inhibition; extreme values may be limits of the assay
Procedure, shortened: as §1

[8] = system: TE-1 (Esophageal Squamous Cell Carcinoma); assay: as above
Procedure, shortened: as §1

[9] = system: OVCAR-4 (Ovarian Carcinoma); assay: as above
Procedure, shortened: as §1

[10] = system: HSC-4 (Oral Cavity Carcinoma); assay: as above
Procedure, shortened: as §1

[11] = system: SCC-15 (Oral Cavity Carcinoma); assay: as above
Procedure, shortened: as §1

[12] = system: HOP-62 (Lung Adenocarcinoma); assay: as above
Procedure, shortened: as §1

[13] = system: NEC8 (Other Solid Carcinomas); assay: as above
Procedure, shortened: as §1

[14] = system: OSC-20 (Oral Cavity Carcinoma); assay: as above
Procedure, shortened: as §1

[15] = system: KMOE-2 (Acute Myeloid Leukemia); assay: as above
Procedure, shortened: as §1

[16] = system: VA-ES-BJ (Other Solid Carcinomas); assay: as above
Procedure, shortened: as §1
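For Bliss excess, mean over the matrix in this document: after 72 h of two-drug dosing.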

Cc1cc2ncnn2cc1Nc1ncc2c(n1)n(C1CCOCC1)c(=O)n2C [AZD7648] + C[C@@H]1COCCN1C2=NC(=NC(=C2)C3(CC3)[S@](=N)(=O)C)C4=C5C=CNC5=NC=C4 [AZD6738] (first compound max 10 µM, 7x7, partner max 10 µM)
Bliss excess [1]: -0.0183
Bliss excess [2]: -0.0392
Bliss excess (TK10 (Kidney Carcinoma)): 0.0062
Bliss excess [3]: 0.0323
Bliss excess [4]: 0.0281
Bliss excess (UACC-62 (Melanoma)): 0.0529
Bliss excess [5]: 0.0123
Bliss excess [6]: -0.0254
Bliss excess [7]: -0.0123
Bliss excess (D-263MG (Glioblastoma)): -0.0206
combination Emax (PWR-1E (Non-Cancerous)): 0.769
combination Emax [8]: 0.414
combination Emax [9]: 0.737
combination Emax [10]: 0.584
combination Emax [11]: 0.565
combination Emax [12]: 0.435
combination Emax [13]: 0.7
combination Emax [14]: 0.41
combination Emax [15]: 0.586
combination Emax [16]: 0.73

Cc1cc2ncnn2cc1Nc1ncc2c(n1)n(C1CCOCC1)c(=O)n2C [AZD7648] + CCN(CCO)CCCOc1ccc2c(Nc3cc(CC(=O)Nc4cccc(F)c4)[nH]n3)ncnc2c1 [AZD2811] (first compound max 10 µM, 7x7, partner max 1 µM)
Bliss excess [1]: 0.0493
Bliss excess [2]: 0.0057
Bliss excess (TK10 (Kidney Carcinoma)): 0.0024
Bliss excess [3]: 0.116
Bliss excess [4]: 0.0246
Bliss excess (UACC-62 (Melanoma)): -0.0027
Bliss excess [5]: -0.0078
Bliss excess [6]: 0.0108
Bliss excess [7]: -0.0572
Bliss excess (D-263MG (Glioblastoma)): 0.0415
combination Emax (PWR-1E (Non-Cancerous)): 0.588
combination Emax [8]: 0.246
combination Emax [9]: 0.285
combination Emax [10]: 0.188
combination Emax [11]: 0.458
combination Emax [12]: 0.204
combination Emax [13]: 0.0355
combination Emax [14]: 0.454
combination Emax [15]: 0.297
combination Emax [16]: 0.346

CN(CCO)CC[C@H](CSc1ccccc1)Nc1ccc(S(=O)(=O)NC(=O)c2ccc(N3CCC([C@@H](O)c4ccccc4-c4ccc(Cl)cc4)CC3)cc2)cc1S(=O)(=O)C(F)(F)F [AZD4320] + CCN(CCO)CCCOc1ccc2c(Nc3cc(CC(=O)Nc4cccc(F)c4)[nH]n3)ncnc2c1 [AZD2811] (first compound max 1 µM, 7x7, partner max 1 µM)
Bliss excess [1]: 0.0104
Bliss excess [2]: -0.0437
Bliss excess (TK10 (Kidney Carcinoma)): -0.0199
Bliss excess [3]: 0.147
Bliss excess [4]: -0.0273
Bliss excess (UACC-62 (Melanoma)): 0.0105
Bliss excess [5]: -0.0435
Bliss excess [6]: 0.0532
Bliss excess [7]: -0.002
Bliss excess (D-263MG (Glioblastoma)): 0.0665
combination Emax (PWR-1E (Non-Cancerous)): 0.843
combination Emax [8]: 0.655
combination Emax [9]: 0.389
combination Emax [10]: 0.517
combination Emax [11]: 0.346
combination Emax [12]: 0.359
combination Emax [13]: 0.159
combination Emax [14]: 0.291
combination Emax [15]: 0.934
combination Emax [16]: 0.291

COc1cc2c(cc1OCCCCCOc1cc3c(cc1OC)C(=O)N1C=C(C)C[C@H]1C=N3)N=C[C@@H]1CC(C)=CN1C2=O [SG3199] + O=C(c1cc(Cc2n[nH]c(=O)c3ccccc23)ccc1F)N1CCN(C(=O)C2CC2)CC1 [Olaparib] (first compound max 0.001 µM, 7x7, partner max 10 µM)
Bliss excess [1]: -0.0122
Bliss excess [2]: 0.0047
Bliss excess (TK10 (Kidney Carcinoma)): -0.0646
Bliss excess [3]: -0.063
Bliss excess [4]: -0.041
Bliss excess (UACC-62 (Melanoma)): -0.0663
Bliss excess [5]: -0.046
Bliss excess [6]: -0.0415
Bliss excess [7]: -0.0348
Bliss excess (D-263MG (Glioblastoma)): -0.018
combination Emax (PWR-1E (Non-Cancerous)): 0.0981
combination Emax [8]: 0.194
combination Emax [9]: 0.126
combination Emax [10]: 0.212
combination Emax [11]: 0.0778
combination Emax [12]: 0.118
combination Emax [13]: 0.201
combination Emax [14]: 0.145
combination Emax [15]: 0.0783
combination Emax [16]: 0.151

Cc1cc2ncnn2cc1Nc1ncc2c(n1)n(C1CCOCC1)c(=O)n2C [AZD7648] + O=C(c1cc(Cc2n[nH]c(=O)c3ccccc23)ccc1F)N1CCN(C(=O)C2CC2)CC1 [Olaparib] (first compound max 10 µM, 7x7, partner max 10 µM)
Bliss excess [1]: -0.0098
Bliss excess [2]: -0.0146
Bliss excess (TK10 (Kidney Carcinoma)): -0.0843
Bliss excess [3]: -0.0652
Bliss excess [4]: -0.0635
Bliss excess (UACC-62 (Melanoma)): -0.0219
Bliss excess [5]: -0.0369
Bliss excess [6]: -0.0246
Bliss excess [7]: 0.0142
Bliss excess (D-263MG (Glioblastoma)): -0.0367
combination Emax (PWR-1E (Non-Cancerous)): 0.28
combination Emax [8]: 0.15
combination Emax [9]: 0.133
combination Emax [10]: 0.26
combination Emax [11]: 0.14
combination Emax [12]: 0.145
combination Emax [13]: 0.259
combination Emax [14]: 0.265
combination Emax [15]: 0.176
combination Emax [16]: 0.18

CN(CCO)CC[C@H](CSc1ccccc1)Nc1ccc(S(=O)(=O)NC(=O)c2ccc(N3CCC([C@@H](O)c4ccccc4-c4ccc(Cl)cc4)CC3)cc2)cc1S(=O)(=O)C(F)(F)F [AZD4320] + C1CN(CCC1(C(=O)N[C@@H](CCO)C2=CC=C(C=C2)Cl)N)C3=NC=NC4=C3C=CN4 [Capivasertib] (first compound max 1 µM, 7x7, partner max 3 µM)
Bliss excess [1]: -0.0024
Bliss excess [2]: -0.0108
Bliss excess (TK10 (Kidney Carcinoma)): -0.0676
Bliss excess [3]: -0.0292
Bliss excess [4]: -0.0449
Bliss excess (UACC-62 (Melanoma)): -0.0584
Bliss excess [5]: -0.0875
Bliss excess [6]: -0.0476
Bliss excess [7]: 0.0007
Bliss excess (D-263MG (Glioblastoma)): -0.0512
combination Emax (PWR-1E (Non-Cancerous)): 0.252
combination Emax [8]: 0.369
combination Emax [9]: 0.0826
combination Emax [10]: 0.32
combination Emax [11]: 0.14
combination Emax [12]: 0.115
combination Emax [13]: 0.0891
combination Emax [14]: 0.0937
combination Emax [15]: 0.828
combination Emax [16]: 0.224

Cc1nc(Nc2ncc(C(=O)Nc3c(C)cccc3Cl)s2)cc(N2CCN(CCO)CC2)n1 [Dasatinib] + CC(=O)Nc1cccc(-n2c(=O)n(C3CC3)c(=O)c3c(Nc4ccc(I)cc4F)n(C)c(=O)c(C)c32)c1 [Trametinib] (first compound max 2 µM, 7x7, partner max 1 µM)
Bliss excess [1]: 0.0122
Bliss excess [2]: -0.112
Bliss excess (TK10 (Kidney Carcinoma)): 0.0159
Bliss excess [3]: -0.0957
Bliss excess [4]: -0.0101
Bliss excess (UACC-62 (Melanoma)): 0.0064
Bliss excess [5]: 0.0163
Bliss excess [6]: 0.156
Bliss excess [7]: -0.0157
Bliss excess (D-263MG (Glioblastoma)): -0.031
combination Emax (PWR-1E (Non-Cancerous)): 0.897
combination Emax [8]: 0.791
combination Emax [9]: 0.62
combination Emax [10]: 0.423
combination Emax [11]: 0.739
combination Emax [12]: 0.749
combination Emax [13]: 0
combination Emax [14]: 0.434
combination Emax [15]: 1
combination Emax [16]: 0.441

COc1cc2ncnc(Nc3ccc(F)c(Cl)c3)c2cc1OCCCN1CCOCC1 [Gefitinib] + CC(C)n1c(=O)n(C)c2cnc3cc(F)c(-c4ccc(OCCCN5CCCCC5)nc4)cc3c21 [AZD1390] (first compound max 10 µM, 7x7, partner max 0.3 µM)
Bliss excess [1]: -0.0218
Bliss excess [2]: -0.0614
Bliss excess (TK10 (Kidney Carcinoma)): -0.0646
Bliss excess [3]: -0.0722
Bliss excess [4]: -0.0177
Bliss excess (UACC-62 (Melanoma)): -0.0358
Bliss excess [5]: -0.0853
Bliss excess [6]: -0.0307
Bliss excess [7]: -0.0385
Bliss excess (D-263MG (Glioblastoma)): -0.0401
combination Emax (PWR-1E (Non-Cancerous)): 0.205
combination Emax [8]: 0.368
combination Emax [9]: 0.0866
combination Emax [10]: 0.0642
combination Emax [11]: 0.39
combination Emax [12]: 0.0723
combination Emax [13]: 0
combination Emax [14]: 0.064
combination Emax [15]: 0.0507
combination Emax [16]: 0.0868

C[C@@H](c1ccc2nccn2c1)n1nnc2ncc(-c3cnn(C)c3)nc21 [Savolitinib] + CC1(C)CCC(CN2CCN(c3ccc(C(=O)NS(=O)(=O)c4ccc(NCC5CCOCC5)c([N+](=O)[O-])c4)c(Oc4cnc5[nH]ccc5c4)c3)CC2)=C(c2ccc(Cl)cc2)C1 [Venetoclax] (first compound max 1 µM, 7x7, partner max 1 µM)
Bliss excess [1]: -0.0121
Bliss excess [2]: -0.0738
Bliss excess (TK10 (Kidney Carcinoma)): -0.0568
Bliss excess [3]: -0.0273
Bliss excess [4]: -0.0471
Bliss excess (UACC-62 (Melanoma)): -0.0111
Bliss excess [5]: -0.0736
Bliss excess [6]: -0.0355
Bliss excess [7]: 0.0273
Bliss excess (D-263MG (Glioblastoma)): -0.0797
combination Emax (PWR-1E (Non-Cancerous)): 0.0879
combination Emax [8]: 0.0986
combination Emax [9]: 0.0979
combination Emax [10]: 0
combination Emax [11]: 0.191
combination Emax [12]: 0.0599
combination Emax [13]: 0.117
combination Emax [14]: 0.149
combination Emax [15]: 0.0977
combination Emax [16]: 0.152

CN(CCO)CC[C@H](CSc1ccccc1)Nc1ccc(S(=O)(=O)NC(=O)c2ccc(N3CCC([C@@H](O)c4ccccc4-c4ccc(Cl)cc4)CC3)cc2)cc1S(=O)(=O)C(F)(F)F [AZD4320] + C[C@@H]1COCCN1C2=NC(=NC(=C2)C3(CC3)[S@](=N)(=O)C)C4=C5C=CNC5=NC=C4 [AZD6738] (first compound max 1 µM, 7x7, partner max 10 µM)
Bliss excess [1]: -0.0153
Bliss excess [2]: -0.0092
Bliss excess (TK10 (Kidney Carcinoma)): -0.0797
Bliss excess [3]: -0.0511
Bliss excess [4]: -0.0496
Bliss excess (UACC-62 (Melanoma)): -0.0317
Bliss excess [5]: -0.0714
Bliss excess [6]: -0.045
Bliss excess [7]: 0.0252
Bliss excess (D-263MG (Glioblastoma)): -0.0424
combination Emax (PWR-1E (Non-Cancerous)): 0.971
combination Emax [8]: 0.742
combination Emax [9]: 0.794
combination Emax [10]: 0.927
combination Emax [11]: 0.709
combination Emax [12]: 0.599
combination Emax [13]: 0.904
combination Emax [14]: 0.358
combination Emax [15]: 0.938
combination Emax [16]: 0.863
